Results taken from PMC6269039, “Synthesis and Cytotoxicity Testing of New Amido-Substituted Triazolopyrrolo[2,1-c][1,4]benzodiazepine (PBDT) Derivatives” (Molecules, 2012).
pIC50: −log10 of the molar value.

Legend:
in vitro = conditions: human
Description: (§1) After incubation of the cells with the compounds at concentrations of 3.12, 6.25, 12.50, 25.0, 50.0 and 100 µM for 48 h, the cell growth and viability were assessed by using CCK-8 assay.
(§2) Human fibroblast cells (MRC-5) cells were used for cell culture experiments. Cells were cultured with 90% Eagle’s minimum essential medium with 2 mM L-glutamine and Earle’s BSS adjusted to contain 1.5 g/L sodium bicarbonate, 0.1 mM non-essential amino acids, 1.0 mM sodium pyruvate with 10% fetal bovine serum, 100 U/mL penicillin, and 100 μg/mL streptomycin. The cells were placed in an incubator to maintain high humidity, 37 °C, and 5% CO2 for the cell culture experiments. Cells were routinely sub-passaged in a 1:2 to 1:5 split using 0.25% trypsin.
(§3) The cell viability was determined using a CCK-8 assay following the manufacturer’s instructions. Mahlavu cells and MRC-5 cells were seeded in 96-well plates and allowed to attach overnight at 37 °C. […] After the incubation period, 10 μL of cell Counting Kit-8 solution was added to the medium, and the cells were incubated for an additional 1–4 h in the incubator. The absorbance at 450 nm was then measured using a microplate reader. The IR was calculated using the following equation: IR = [1 − (A value for the treated samples − A value for the blank samples)/(A value for the control samples − A value for the blank samples)] × 100%. The assays were performed in triplicate and repeated at least twice.

Mahlavu cells [1] = assay: cells; conditions: Homo sapiens, 48 h; for viability at 100 µM: read-out: percentage of viable Mahlavu cells (cell viability); for pIC50: read-out: IC50 for Mahlavu cells
Description: (§4) The cytotoxic activities of the newly synthesized amido-substituted triazolopyrrolo [2,1-c][1,4]benzodiazepines PBDT-7a–k were tested against Mahlavu and MRC-5 cells. After incubation of the cells with the compounds at concentrations of 3.12, 6.25, 12.50, 25.0, 50.0 and 100 µM for 48 h, the cell growth and viability were assessed by using CCK-8 assay.
(§5) Human hepatocellular carcinoma (Mahlavu) epithelial cells were used for cell culture experiments. Cells were cultured with 90% Dulbecco’s modified Eagle’s medium with 10% fetal bovine serum, 100 U/mL penicillin, and 100 μg/mL streptomycin. The cells were placed in an incubator to maintain high humidity, a temperature of 37 °C, and 5% CO2 for cell culture experiments. Cells were routinely sub-passaged in a 1:4 to 1:6 split using 0.25% trypsin.
(§6) The cell viability was determined using a CCK-8 assay following the manufacturer’s instructions. Mahlavu cells and MRC-5 cells were seeded in 96-well plates and allowed to attach overnight at 37 °C. Cells were treated with PBDT-7a–k in 0.1% FBS MEM or DMEM (100 μL/well), and the cells were incubated for 48 h in a humidified atmosphere. After the incubation period, 10 μL of cell Counting Kit-8 solution was added to the medium, and the cells were incubated for an additional 1–4 h in the incubator. The absorbance at 450 nm was then measured using a microplate reader. The IR was calculated using the following equation: IR = [1 − (A value for the treated samples − A value for the blank samples)/(A value for the control samples − A value for the blank samples)] × 100%. The assays were performed in triplicate and repeated at least twice.
(§7) Mahlavu cells were treated with PBDT-7 series compounds for 48 h, and survival was assessed using a CCK-8 assay (mean ± SEM, n = 6).

Mahlavu cells [2] = conditions: 48 h, CCK-8; for effect on viability of Mahlavu cells, in words: 100 µM
Description: as §4, §5, §6, §7

MRC-5 cells = assay: CCK-8 cytotoxicity assay, MRC-5 cells; conditions: 48 h
Description: as §1, §2, §3

CC(C)(C)C(=O)Nc1nnc2n1-c1ccccc1C(=O)N1CCC[C@@H]21 [PBDT-7a, ((13aS)-9-Oxo-11,12,13,13a-tetrahydro-9H-benzo[e]pyrrolo[1,2-a][1,2,4]triazolo[3,4-c][1,4]diazepin-3-yl)pivalamide]
melting point: 213 to 215 °C
viability at 48 h, 100 µM (in vitro): > 75%
viability at 100 µM (Mahlavu cells [1]): > 75%

O=C(Nc1nnc2n1-c1ccccc1C(=O)N1CCC[C@@H]21)c1ccccc1 [PBDT-7b, N-((13aS)-9-Oxo-11,12,13,13a-tetrahydro-9H-benzo[e]pyrrolo[1,2-a][1,2,4]triazolo[3,4-c][1,4]diazepin-3-yl)benzamide]
melting point: 173 to 175 °C
viability at 48 h, 100 µM (in vitro): > 75%
viability at 100 µM (Mahlavu cells [1]): > 75%

O=C(Nc1nnc2n1-c1ccccc1C(=O)N1CCC[C@@H]21)c1ccccc1F [PBDT-7c, 2-Fluoro-N-((13aS)-9-oxo-11,12,13,13a-tetrahydro-9H-benzo[e]pyrrolo[1,2-a][1,2,4]triazolo[3,4-c][1,4]diazepin-3-yl)benzamide]
effect on viability of Mahlavu cells, in words (Mahlavu cells [2]): little effect

O=C(Nc1nnc2n1-c1ccccc1C(=O)N1CCC[C@@H]21)c1cccc(F)c1 [PBDT-7d, 3-Fluoro-N-((13aS)-9-oxo-11,12,13,13a-tetrahydro-9H-benzo[e]pyrrolo[1,2-a][1,2,4]triazolo[3,4-c][1,4]diazepin-3-yl)benzamide]
melting point: 159 to 160 °C
viability at 100 µM (Mahlavu cells [1]): ~61%

O=C(Nc1nnc2n1-c1ccccc1C(=O)N1CCC[C@@H]21)c1ccc(F)cc1 [PBDT-7e, 4-Fluoro-N-((13aS)-9-oxo-11,12,13,13a-tetrahydro-9H-benzo[e]pyrrolo[1,2-a][1,2,4]triazolo[3,4-c][1,4]diazepin-3-yl)benzamide]
effect on viability of Mahlavu cells, in words (Mahlavu cells [2]): little effect

COc1cccc(C(=O)Nc2nnc3n2-c2ccccc2C(=O)N2CCC[C@@H]32)c1 [PBDT-7f, 3-Methoxy-N-((13aS)-9-oxo-11,12,13,13a-tetrahydro-9H-benzo[e]pyrrolo[1,2-a][1,2,4]triazolo[3,4-c][1,4]diazepin-3-yl)benzamide]
melting point: 168 to 170 °C
viability at 100 µM (Mahlavu cells [1]): 37%

N#Cc1cccc(C(=O)Nc2nnc3n2-c2ccccc2C(=O)N2CCC[C@@H]32)c1 [PBDT-7g, 3-Cyano-N-((13aS)-9-oxo-11,12,13,13a-tetrahydro-9H-benzo[e]pyrrolo[1,2-a][1,2,4]triazolo[3,4-c] [1,4]diazepin-3-yl)benzamide]
melting point: 245 to 246 °C
pIC50 (Mahlavu cells [1]): 4.30
viability at 100 µM (Mahlavu cells [1]): 36%

O=C(Nc1nnc2n1-c1ccccc1C(=O)N1CCC[C@@H]21)c1cccc(Cl)c1 [PBDT-7h, 3-Chloro-N-((13aS)-9-oxo-11,12,13,13a-tetrahydro-9H-benzo[e]pyrrolo[1,2-a][1,2,4]triazolo[3,4-c][1,4]diazepin-3-yl)benzamide]
survival rate of Mahlavu cells (Mahlavu cells [2]; 50 µM): below 50%
inhibition of Mahlavu cells, in words (Mahlavu cells [2]): potent inhibitor
toxicity to MRC-5 (normal) cells, in words (MRC-5 cells): highly toxic

O=C(Nc1nnc2n1-c1ccccc1C(=O)N1CCC[C@@H]21)c1cccc(C(F)(F)F)c1 [PBDT-7i, N-((13aS)-9-Oxo-11,12,13,13a-tetrahydro-9H-benzo[e]pyrrolo[1,2-a][1,2,4]triazolo[3,4-c][1,4]diazepin-3-yl)-3-(trifluoromethyl)benzamide]
inhibition of Mahlavu cells, in words (Mahlavu cells [2]): selectively inhibit the growth
toxicity to MRC-5 (normal) cells, in words (MRC-5 cells): low-toxic
pIC50 (Mahlavu cells [1]): 4.30
viability at 100 µM (Mahlavu cells [1]): 2%

O=C(Nc1nnc2n1-c1ccccc1C(=O)N1CCC[C@@H]21)c1cccnc1 [PBDT-7j, N-((13aS)-9-Oxo-11,12,13,13a-tetrahydro-9H-benzo[e]pyrrolo[1,2-a][1,2,4]triazolo[3,4-c][1,4]diazepin-3-yl)nicotinamide]
melting point: 225 °C
viability at 48 h, 100 µM (in vitro): > 75%
viability at 100 µM (Mahlavu cells [1]): > 75%

O=C(Nc1nnc2n1-c1ccccc1C(=O)N1CCC[C@@H]21)c1cccs1 [PBDT-7k, N-((13aS)-9-Oxo-11,12,13,13a-tetrahydro-9H-benzo[e]pyrrolo[1,2-a][1,2,4]triazolo[3,4-c][1,4]diazepin-3-yl)thiophene-2-carboxamide]
melting point: 185 to 186 °C
viability at 48 h, 100 µM (in vitro): > 75%
viability at 100 µM (Mahlavu cells [1]): > 75%
